Measured values taken from PMC6271228, “Diethyl 2-(Phenylcarbamoyl)phenyl Phosphorothioates: Synthesis, Antimycobacterial Activity and Cholinesterase Inhibition” (Molecules, 2014).
≈ marks a conversion by molar mass, not a printed value. Like-named read-outs stand apart in the source and are kept apart here.

Tests used:
BChE from equine serum = target: T1, BChE from equine serum (Equus caballus, UniProt P81908); assay: BChE inhibition, modified Ellman's method; type: biochemical
T1 construct: butyrylcholinesterase from equine serum; from tissue; host or cells: equine serum
T1 sequence (P81908 whole entry): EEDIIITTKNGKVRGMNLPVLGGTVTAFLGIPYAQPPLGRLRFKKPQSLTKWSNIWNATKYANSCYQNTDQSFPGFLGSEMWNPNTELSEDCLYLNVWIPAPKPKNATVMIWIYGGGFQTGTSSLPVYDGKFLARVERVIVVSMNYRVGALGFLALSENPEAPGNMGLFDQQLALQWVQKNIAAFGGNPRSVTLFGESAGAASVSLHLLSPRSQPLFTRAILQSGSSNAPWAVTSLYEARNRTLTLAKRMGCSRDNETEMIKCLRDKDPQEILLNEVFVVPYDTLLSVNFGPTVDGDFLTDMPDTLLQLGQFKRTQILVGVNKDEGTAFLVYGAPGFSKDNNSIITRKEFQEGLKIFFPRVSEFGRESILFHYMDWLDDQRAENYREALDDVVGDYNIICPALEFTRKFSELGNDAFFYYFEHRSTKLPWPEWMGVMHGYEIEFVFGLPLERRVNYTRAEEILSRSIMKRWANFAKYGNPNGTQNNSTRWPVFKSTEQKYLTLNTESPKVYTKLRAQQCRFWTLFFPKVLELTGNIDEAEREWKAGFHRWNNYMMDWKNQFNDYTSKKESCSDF
From the text: (§1) The ability of the tested compounds to inhibit AChE from electric eel (Electrophorus electricus L.) and BChE from equine serum was screened in vitro using modified Ellman’s method for the evaluation of cholinesterase activity. […] […]. These two standards were chosen due to their different structures. […]. The choice of these drugs with different mechanism of action can provide relevant results. All tested compounds expressed a good inhibitory activity with IC50s in low micromolar values.
(§2) The IC50 values were determined using the spectrophotometric Ellman’s method, which is a simple, rapid and direct method to determine the SH and -S-S- group content in proteins. This method is widely used for cholinesterase activity evaluation and screening of the efficiency of cholinesterase inhibitors. Cholinesterase activity is measured indirectly by quantifying the concentration of 5-thio-2-nitrobenzoic acid (TNB) ion formed in the reaction between the thiol reagent 5,5'-dithiobis-2-nitrobenzoic acid (DTNB) and thiocholine, a product of substrate hydrolysis by cholinesterase (i.e., acetylthiocholine, ATCh). All the tested compounds were dissolved in dimethyl sulfoxide (concentration 0.01 M) and then diluted in demineralised water (concentration 0.001 M and 0.0001 M). The Ellman’s method is slightly modified according to Zdrazilova et al.. Acetylcholinesterase was obtained from electric eel (Electrophorus electricus L.) and butyrylcholinesterase from equine serum.

AChE from electric eel = target: T2, AChE from electric eel (Electrophorus electricus, UniProt O42275); assay: AChE inhibition, modified Ellman's method; type: biochemical, Electrophorus electricus L.
T2 construct: Acetylcholinesterase was obtained from electric eel (Electrophorus electricus L.); from tissue; host or cells: electric eel (Electrophorus electricus L.)
T2 sequence (O42275 24-633): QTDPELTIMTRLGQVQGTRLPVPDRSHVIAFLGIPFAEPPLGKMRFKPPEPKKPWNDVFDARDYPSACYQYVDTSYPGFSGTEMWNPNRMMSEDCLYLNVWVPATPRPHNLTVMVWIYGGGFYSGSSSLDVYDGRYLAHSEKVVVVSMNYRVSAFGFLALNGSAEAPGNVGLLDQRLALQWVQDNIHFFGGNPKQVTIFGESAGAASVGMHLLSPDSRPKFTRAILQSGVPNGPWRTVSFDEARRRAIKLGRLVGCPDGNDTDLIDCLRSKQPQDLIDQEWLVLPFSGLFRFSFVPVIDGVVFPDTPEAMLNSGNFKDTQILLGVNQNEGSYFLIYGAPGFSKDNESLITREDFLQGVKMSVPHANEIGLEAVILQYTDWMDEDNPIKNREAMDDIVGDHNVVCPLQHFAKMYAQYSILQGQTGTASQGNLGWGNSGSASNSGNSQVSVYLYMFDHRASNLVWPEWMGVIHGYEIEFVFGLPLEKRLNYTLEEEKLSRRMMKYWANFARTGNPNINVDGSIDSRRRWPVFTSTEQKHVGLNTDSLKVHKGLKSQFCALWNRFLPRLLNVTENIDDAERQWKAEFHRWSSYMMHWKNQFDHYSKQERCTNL
From the text: as §1, §2

M. kansasii My 235/80 = assay: microbe, parasite or virus in culture; type: cell-based, Mycobacterium kansasii; conditions: for MIC: Mycobacterium kansasii, 37 °C; for MICs for M. kansasii 235/80: all time points
M. avium My 330/88 = assay: microbe, parasite or virus in culture; type: cell-based, Mycobacterium avium; conditions: for MIC: Mycobacterium avium, 37 °C; for MIC values against M. avium: all MIC values (14 and 21 d)
[1] = system: Mycobacterium tuberculosis My 331/88 (H37Rv); assay: microbe, parasite or virus in culture; type: cell-based
[2] = system: M. kansasii 6509/96 (clinically isolated); assay: microbe, parasite or virus in culture; type: cell-based; conditions: Mycobacterium kansasii, 37 °C
[3] = MY235/80, 168 h, 7 d, read-out: MIC M. kansasii 235/80 7 d
[4] = MY235/80, 336 h, 14 d, read-out: MIC M. kansasii 235/80 14 d
[5] = MY235/80, 504 h, 21 d, read-out: MIC M. kansasii 235/80 21 d
[6] = MY330/88, 336 h, 14 d, read-out: MIC M. avium 330/88 14 d
[7] = MY330/88, 504 h, 21 d, read-out: MIC M. avium 330/88 21 d
[8] = 336 h, 14 d, 37 °C, read-out: MIC Mtb 331/88 (H37Rv) 14 d
[9] = 504 h, 21 d, 37 °C, read-out: MIC Mtb 331/88 (H37Rv) 21 d
[10] = 168 h, 7 d, read-out: MIC M. kansasii 6509/96 7 d
[11] = 336 h, 14 d, read-out: MIC M. kansasii 6509/96 14 d
[12] = 504 h, 21 d, read-out: MIC M. kansasii 6509/96 21 d

Row | Structure (SMILES) | IC50 (BChE from equine serum) [µM] | IC50 (AChE from electric eel) [µM] | MIC (M. kansasii My 235/80; [3]) [µM] | MIC (M. kansasii My 235/80; [4]) [µM] | MIC (M. kansasii My 235/80; [5]) [µM] | MICs for M. kansasii 235/80 (M. kansasii My 235/80) [µM] | MIC (M. avium My 330/88; [6]) [µM] | MIC (M. avium My 330/88; [7]) [µM] | MIC values against M. avium (M. avium My 330/88) [µM] | MIC [1, 8] [µM] | MIC [1, 9] [µM] | MIC ([1]; read-out: MIC against Mtb) [µM] | MIC [2, 10] [µM] | MIC [2, 11] [µM] | MIC [2, 12] [µM]
1 | CCOP(=S)(OCC)Oc1ccc(Br)cc1C(=O)Nc1cccc(C(F)(F)F)c1 [1h, O-(4-Bromo-2-{[3-(trifluoromethyl)phenyl]carbamoyl}phenyl) O,O-diethyl phosphorothioate] | 20 ± 0.5 | 13 ± 0.02 | 32 (≈ 16.4 µg/mL) | 62.5 (≈ 32 µg/mL) | 125 (≈ 64 µg/mL) | ≤ 250 | 125 (≈ 64 µg/mL) | 125 (≈ 64 µg/mL) | ≤ 250 | 8 (≈ 4.1 µg/mL) | 8 (≈ 4.1 µg/mL) | 8 (≈ 4.1 µg/mL) | 32 (≈ 16.4 µg/mL) | 62.5 (≈ 32 µg/mL) | 125 (≈ 64 µg/mL)
2 | CCOP(=S)(OCC)Oc1ccc(Br)cc1C(=O)Nc1ccc(C(F)(F)F)cc1 [1i, O-(4-Bromo-2-{[4-(trifluoromethyl)phenyl]carbamoyl}phenyl) O,O-diethyl phosphorothioate] | 20.2 ± 1.6 | 11.2 ± 0.02 | 32 (≈ 16.4 µg/mL) | 62.5 (≈ 32 µg/mL) | 125 (≈ 64 µg/mL) | ≤ 250 | 125 (≈ 64 µg/mL) | 125 (≈ 64 µg/mL) | ≤ 250 | 8 (≈ 4.1 µg/mL) | 8 (≈ 4.1 µg/mL) | 8 (≈ 4.1 µg/mL) | 32 (≈ 16.4 µg/mL) | 62.5 (≈ 32 µg/mL) | 125 (≈ 64 µg/mL)
3 | CCOP(=S)(OCC)Oc1ccc(Cl)cc1C(=O)Nc1cccc(Cl)c1 [1j, O-{4-Chloro-2-[(3-chlorophenyl)carbamoyl]phenyl} O,O-diethyl phosphorothioate] | 14.8 ± 0.15 | 9.97 ± 0.24 | 250 (≈ 109 µg/mL) | 250 (≈ 109 µg/mL) | 500 (≈ 217 µg/mL) |  | > 500 | > 500 |  | 32 (≈ 13.9 µg/mL) | 62.5 (≈ 27.1 µg/mL) |  | 250 (≈ 109 µg/mL) | 500 (≈ 217 µg/mL) | 500 (≈ 217 µg/mL)
4 | CCOP(=S)(OCC)Oc1ccc(Cl)cc1C(=O)Nc1ccc(Cl)cc1 [1k, O-{4-Chloro-2-[(4-chlorophenyl)carbamoyl]phenyl} O,O-diethyl phosphorothioate] | 12.7 ± 0.1 | 9.78 ± 0.11 | 32 (≈ 13.9 µg/mL) | 62.5 (≈ 27.1 µg/mL) | 62.5 (≈ 27.1 µg/mL) | ≤ 250 | 500 (≈ 217 µg/mL) | 500 (≈ 217 µg/mL) |  | 32 (≈ 13.9 µg/mL) | 32 (≈ 13.9 µg/mL) |  | 62.5 (≈ 27.1 µg/mL) | 125 (≈ 54.3 µg/mL) | 125 (≈ 54.3 µg/mL)
5 | CCOP(=S)(OCC)Oc1ccc(Cl)cc1C(=O)Nc1ccc(Cl)c(Cl)c1 [1l, O-{4-Chloro-2-[(3,4-dichlorophenyl)carbamoyl]phenyl} O,O-diethyl phosphorothioate] | 17.4 ± 0.5 | 9.33 ± 0.11 | 125 (≈ 58.6 µg/mL) | 250 (≈ 117 µg/mL) | 500 (≈ 234 µg/mL) |  | > 500 | > 500 |  | 8 (≈ 3.75 µg/mL) | 8 (≈ 3.75 µg/mL) | 8 (≈ 3.75 µg/mL) | 125 (≈ 58.6 µg/mL) | 250 (≈ 117 µg/mL) | 250 (≈ 117 µg/mL)
6 | CCOP(=S)(OCC)Oc1ccc(Cl)cc1C(=O)Nc1cccc(Br)c1 [1m, O-{2-[(3-Bromophenyl)carbamoyl]-4-chlorophenyl} O,O-diethyl phosphorothioate] | 15.1 ± 1.3 | 14.1 ± 0.2 | 125 (≈ 59.8 µg/mL) | 500 (≈ 239 µg/mL) | > 500 |  | 500 (≈ 239 µg/mL) | 500 (≈ 239 µg/mL) |  | 16 (≈ 7.66 µg/mL) | 16 (≈ 7.66 µg/mL) |  | 125 (≈ 59.8 µg/mL) | 500 (≈ 239 µg/mL) | 500 (≈ 239 µg/mL)
7 | NNC(=O)c1ccncc1 [INH, isoniazid, reference compound] |  |  | > 250 | > 250 | > 250 |  | > 250 | > 250 |  | 0.5 to 1 (≈ 0.0686 to 0.137 µg/mL) | 1 (≈ 0.137 µg/mL) |  | 2 to 4 (≈ 0.274 to 0.549 µg/mL) | 4 (≈ 0.549 µg/mL) | 4 to 8 (≈ 0.549 to 1.1 µg/mL)
8 | Nc1ccc(C(=O)O)c(O)c1 [PAS, para-aminosalicylic acid, reference compound] |  |  | 125 (≈ 19.1 µg/mL) | 1000 (≈ 153 µg/mL) | > 1000 |  | 32 (≈ 4.9 µg/mL) | 125 (≈ 19.1 µg/mL) |  | 62.5 (≈ 9.57 µg/mL) | 62.5 (≈ 9.57 µg/mL) |  | 32 (≈ 4.9 µg/mL) | 125 (≈ 19.1 µg/mL) | 500 (≈ 76.6 µg/mL)
